Measured values: patent publication US11883526B2 (priority 2019, dated 2024)
Like-named read-outs stand apart in the source and are kept apart here.

System: subjects with MDD at imminent risk for suicide
Details: 84 mg
[1] = TEAE leading to study discontinuation, double-blind phase, N = 35
[2] = TEAE, double-blind phase, N = 35

CN[C@]1(c2ccccc2Cl)CCCCC1=O [esketamine, (S)-2-(2-chlorophenyl)-2-(methylamino)cyclohexanone]
subjects who discontinued the double-blind phase due to adverse events: 5 subjects | TEAE incidence: dissociation (double-blind phase): 31.4% | TEAE incidence: dizziness (double-blind phase): 34.3% | TEAE incidence: dysgeusia (double-blind phase): 31.4% | TEAE incidence: headache (double-blind phase): 31.4% | TEAE incidence: nausea (double-blind phase): 37.1% | TEAE incidence: vomiting (double-blind phase): 20.0% | subjects with a serious treatment-emergent adverse event (double-blind phase): Four | subjects with at least one TEAE (double-blind phase): 94.3% | subjects with a serious adverse event (follow up phase): 1 subjects | subjects with at least one adverse event (follow up phase): 48.1% | Withdrawn from double-blind phase: Adverse event, percent of subjects (all randomized analysis set): (13.9%) | Withdrawn from double-blind phase: Adverse event, number of subjects (all randomized analysis set, N = 36): 5 | Aggression: % of subjects [1]: 2.9% | Aggression: no. of subjects [1]: 1 | Agitation: % of subjects [1]: 2.9% | Agitation: no. of subjects [1]: 1 | Cardiac disorders: % of subjects [1]: 2.9% | Cardiac disorders: no. of subjects [1]: 1 | Dissociative disorder: no. of subjects [1]: 0 | Dizziness: % of subjects [1]: 2.9% | Dizziness: no. of subjects [1]: 1 | Dysgeusia: % of subjects [1]: 2.9% | Dysgeusia: no. of subjects [1]: 1 | Dyspnea: % of subjects [1]: 2.9% | Dyspnea: no. of subjects [1]: 1 | Gastrointestinal disorders: % of subjects [1]: 2.9% | Gastrointestinal disorders: no. of subjects [1]: 1 | Nausea: % of subjects [1]: 2.9% | Nausea: no. of subjects [1]: 1 | Nervous system disorders: % of subjects [1]: 5.7% | Nervous system disorders: no. of subjects [1]: 2 | Panic attack: no. of subjects [1]: 0 | Psychiatric disorders: % of subjects [1]: 5.7% | Psychiatric disorders: no. of subjects [1]: 2 | Respiratory, thoracic and mediastinal disorders: % of subjects [1]: 2.9% | Respiratory, thoracic and mediastinal disorders: no. of subjects [1]: 1 | Total no. subjects with TEAE leading to study discontinuation: % of subjects [1]: 14.3% | Total no. subjects with TEAE leading to study discontinuation: no. of subjects [1]: 5 | Ventricular extrasystoles: % of subjects [1]: 2.9% | Ventricular extrasystoles: no. of subjects [1]: 1 | Abdominal pain: no. of subjects [2]: 0 | Acne: % of subjects [2]: (5.7%) | Acne: no. of subjects [2]: 2 | Agitation: % of subjects [2]: (8.6%) | Agitation: no. of subjects [2]: 3 | Anxiety: % of subjects [2]: (17.1%) | Anxiety: no. of subjects [2]: 6 | Blepharospasm: no. of subjects [2]: 0 | Blood pressure increased: % of subjects [2]: (5.7%) | Blood pressure increased: no. of subjects [2]: 2 | Constipation: no. of subjects [2]: 0 | Diarrhea: % of subjects [2]: (8.6%) | Diarrhea: no. of subjects [2]: 3 | Diplopia: % of subjects [2]: (5.7%) | Diplopia: no. of subjects [2]: 2 | Dissociation: % of subjects [2]: (31.4%) | Dissociation: no. of subjects [2]: 11 | Dizziness postural: % of subjects [2]: (5.7%) | Dizziness postural: no. of subjects [2]: 2 | Dizziness: % of subjects [2]: (34.3%) | Dizziness: no. of subjects [2]: 12 | Dry mouth: % of subjects [2]: (8.6%) | Dry mouth: no. of subjects [2]: 3 | Dysgeusia: % of subjects [2]: (31.4%) | Dysgeusia: no. of subjects [2]: 11 | Ear and labyrinth disorders: % of subjects [2]: (25.7%) | Ear and labyrinth disorders: no. of subjects [2]: 9 | Epistaxis: no. of subjects [2]: 0 | Euphoric mood: % of subjects [2]: (11.4%) | Euphoric mood: no. of subjects [2]: 4 | Eye disorders: % of subjects [2]: (20.0%) | Eye disorders: no. of subjects [2]: 7 | Fatigue: % of subjects [2]: (5.7%) | Fatigue: no. of subjects [2]: 2 | Feeling abnormal: % of subjects [2]: (8.6%) | Feeling abnormal: no. of subjects [2]: 3 | Feeling cold: % of subjects [2]: (5.7%) | Feeling cold: no. of subjects [2]: 2 | Flatulence: % of subjects [2]: (2.9%) | Flatulence: no. of subjects [2]: 1 | Gastrointestinal disorders: % of subjects [2]: (54.3%) | Gastrointestinal disorders: no. of subjects [2]: 19 | General disorders and administration site conditions: % of subjects [2]: (28.6%) | General disorders and administration site conditions: no. of subjects [2]: 10 | Headache: % of subjects [2]: (31.4%) | Headache: no. of subjects [2]: 11 | Hyperacusis: % of subjects [2]: (5.7%) | Hyperacusis: no. of subjects [2]: 2 | Hyperhidrosis: % of subjects [2]: (5.7%) | Hyperhidrosis: no. of subjects [2]: 2 | Hypoesthesia oral: % of subjects [2]: (5.7%) | Hypoesthesia oral: no. of subjects [2]: 2 | Hypoesthesia: % of subjects [2]: (8.6%) | Hypoesthesia: no. of subjects [2]: 3 | Infections and infestations: % of subjects [2]: (2.9%) | Infections and infestations: no. of subjects [2]: 1 | Insomnia: % of subjects [2]: (8.6%) | Insomnia: no. of subjects [2]: 3 | Intranasal paranesthesia: no. of subjects [2]: 0 | Investigations: % of subjects [2]: (14.3%) | Investigations: no. of subjects [2]: 5 | Nasal congestion: % of subjects [2]: (2.9%) | Nasal congestion: no. of subjects [2]: 1 | Nasal discomfort: % of subjects [2]: (8.6%) | Nasal discomfort: no. of subjects [2]: 3 | Nausea: % of subjects [2]: (37.1%) | Nausea: no. of subjects [2]: 13 | Nervous system disorders: % of subjects [2]: (71.4%) | Nervous system disorders: no. of subjects [2]: 25 | Oropharyngeal pain: % of subjects [2]: (5.7%) | Oropharyngeal pain: no. of subjects [2]: 2 | Panic attack: no. of subjects [2]: 0 | Paresthesia oral: % of subjects [2]: (5.7%) | Paresthesia oral: no. of subjects [2]: 2 | Paresthesia: % of subjects [2]: (17.1%) | Paresthesia: no. of subjects [2]: 6 | Pharyngeal hypoesthesia: % of subjects [2]: (5.7%) | Pharyngeal hypoesthesia: no. of subjects [2]: 2 | Pollakiuria: no. of subjects [2]: 0 | Psychiatric disorders: % of subjects [2]: (57.1%) | Psychiatric disorders: no. of subjects [2]: 20 | Rash: % of subjects [2]: (2.9%) | Rash: no. of subjects [2]: 1 | Renal and urinary disorders: % of subjects [2]: (2.9%) | Renal and urinary disorders: no. of subjects [2]: 1 | Respiratory, thoracic and mediastinal disorders: % of subjects [2]: (25.7%) | Respiratory, thoracic and mediastinal disorders: no. of subjects [2]: 9 | Rhinalgia: no. of subjects [2]: 0 | Rhinorrhoea: no. of subjects [2]: 0 | Sedation: % of subjects [2]: (17.1%) | Sedation: no. of subjects [2]: 6 | Skin and subcutaneous tissue disorders: % of subjects [2]: (14.3%) | Skin and subcutaneous tissue disorders: no. of subjects [2]: 5 | Somnolence: % of subjects [2]: (11.4%) | Somnolence: no. of subjects [2]: 4 | Suicidal ideation: % of subjects [2]: (5.7%) | Suicidal ideation: no. of subjects [2]: 2 | Throat irritation: % of subjects [2]: (8.6%) | Throat irritation: no. of subjects [2]: 3 | Tinnitus: % of subjects [2]: (5.7%) | Tinnitus: no. of subjects [2]: 2 | Toothache: no. of subjects [2]: 0 | Total no. subjects with TEAE: % of subjects [2]: (94.3%) | Total no. subjects with TEAE: no. of subjects [2]: 33 | Upper respiratory tract infection: no. of subjects [2]: 0 | Vertigo: % of subjects [2]: (11.4%)
